Assay results reported in publication PMC12144822 (Parasites & Vectors, 2025).

Tests used:
Type in all cases: cell-based
Hsa-GABA α5β2γ2 = Hsa-GABA α5β2γ2 (Homo sapiens, UniProt P18507+P31644+P47870); test: Two-electrode voltage-clamp concentration-activation by the natural agonist, receptor expressed in Xenopus oocytes; parameters: The corresponding open reading frames (ORF) were cloned into the pT7-TS transcription vector; expressed in transfected cells; host or cells: Xenopus laevis oocytes, cRNA injection; settings: concentration-activation curve
Hsa-GABA α5β2γ2, sequence (P31644 32-462): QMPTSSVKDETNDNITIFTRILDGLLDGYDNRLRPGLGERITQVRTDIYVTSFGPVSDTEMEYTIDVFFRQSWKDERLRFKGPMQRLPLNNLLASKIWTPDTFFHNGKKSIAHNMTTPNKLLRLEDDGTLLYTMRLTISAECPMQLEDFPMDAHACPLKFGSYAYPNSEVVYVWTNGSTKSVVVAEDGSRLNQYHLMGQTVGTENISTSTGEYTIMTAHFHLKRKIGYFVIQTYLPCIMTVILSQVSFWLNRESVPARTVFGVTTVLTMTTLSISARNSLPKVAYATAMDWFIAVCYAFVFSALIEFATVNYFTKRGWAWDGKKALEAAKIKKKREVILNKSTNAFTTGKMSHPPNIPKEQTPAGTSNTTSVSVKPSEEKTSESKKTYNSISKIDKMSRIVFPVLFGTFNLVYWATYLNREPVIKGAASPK
Hsa-GABA α5β2γ2, sequence (P47870 26-474 isoform P47870-1 limits assumed): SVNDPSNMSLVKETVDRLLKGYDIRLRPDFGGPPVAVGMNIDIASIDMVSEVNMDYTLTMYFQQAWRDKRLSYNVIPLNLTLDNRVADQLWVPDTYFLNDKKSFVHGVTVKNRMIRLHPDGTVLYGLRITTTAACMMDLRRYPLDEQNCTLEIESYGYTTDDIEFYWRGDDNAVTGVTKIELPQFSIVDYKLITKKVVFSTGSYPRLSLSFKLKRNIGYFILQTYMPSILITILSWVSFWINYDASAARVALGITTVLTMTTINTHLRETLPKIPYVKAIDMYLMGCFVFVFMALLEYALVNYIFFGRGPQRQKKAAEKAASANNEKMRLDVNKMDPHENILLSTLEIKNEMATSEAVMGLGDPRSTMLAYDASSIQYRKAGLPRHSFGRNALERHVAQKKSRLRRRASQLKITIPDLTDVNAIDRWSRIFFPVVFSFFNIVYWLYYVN
Hsa-GABA α5β2γ2, sequence (P18507 40-467 isoform P18507-1 limits assumed): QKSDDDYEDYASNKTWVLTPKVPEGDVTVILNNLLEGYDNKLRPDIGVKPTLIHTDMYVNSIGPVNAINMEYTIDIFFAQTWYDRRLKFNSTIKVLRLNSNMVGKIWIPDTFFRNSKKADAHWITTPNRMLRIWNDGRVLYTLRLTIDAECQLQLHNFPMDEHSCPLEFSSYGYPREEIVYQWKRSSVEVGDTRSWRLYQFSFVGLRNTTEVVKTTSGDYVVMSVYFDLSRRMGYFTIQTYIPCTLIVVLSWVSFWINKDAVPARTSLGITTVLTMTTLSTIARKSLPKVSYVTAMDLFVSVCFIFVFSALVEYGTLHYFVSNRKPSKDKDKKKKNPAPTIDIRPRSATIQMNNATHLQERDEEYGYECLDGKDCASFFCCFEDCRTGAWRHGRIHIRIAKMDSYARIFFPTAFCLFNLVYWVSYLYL
Source text: (§1) Complementary DNA (cDNA) encoding for the human GABAA proteins α1 (NM_001127645.2), α2 (NM_001377146.1), α3 (KJ620007.1), α4 (NM_000809.4), α5 (NM_000810.4), α6 (NM_000811.3), β2 (XM_054352312.1), β3 (M82919.1), γ2 (NM_000816.3) and δ (NM_000815.5) were ordered from Genewiz (www.genewiz.com; Leipzig, Germany); for each gene, GenBank accession numbers are provided in parentheses. When necessary, silent mutations were introduced to break NheI or XhoI internal restriction sites. The corresponding open reading frames (ORF) were cloned into the pT7-TS transcription vector (introducing X. laevis β-globin untranslated cDNA to the 5’ and 3’ ends of the gene), following a procedure described in detail in a previous publication. The same process was used to obtain cDNA encoding canine GABAA proteins α4 (XM_025435560.1), α6 (XM_022417729.1) and δ (XM_005620414.2). Gene α2 (XM_025435664.1), α3 (XM_549343.5), α5 (XM_545805.6) and β3 (XM_025437408.1) were obtained by PCR; GenBank reference accession numbers are provided in parentheses. RNA extraction, cDNA synthesis and PCR amplification were performed as described previously. Total RNA was extracted from a piece of dog brain (Beagle breed; Canis lupus familiaris) from which 1 µg of total RNA (DNase-treated) was reverse-transcribed to cDNA using a (dT)30 primer and SuperScript III Reverse Transcriptase (Invitrogen, Thermo Fisher Scientific, Waltham, MA, USA). Gene-specific primers (Additional file 1: Table S1) were designed using Primer 3 software (http://frodo.wi.mit.edu/). […] The cycling conditions were: 98 °C for 30 s; then 38 cycles of 98 °C for 10 s, 58 °C for 30 s and 72 °C for 90 s; followed by 72 °C for 5 min. The dog subunits α1 (XM_546261.5), β2 (XM_014113040.1) and γ2 (XM_546259.5) had been previously amplified and described in a study by Rufener et al..
(§2) Defoliculated X. laevis oocytes ordered from Ecocyte Bioscience (Dortmund, Germany) were microinjected with 15–25 nl of cRNA solution (5–50 ng/μl) per oocyte using an automated injector (Roboinject; Multi Channel Systems MCS GmbH, Reutlingen, Germany) and then incubated at 18 °C. All recordings were made 1–5 days post-cRNA injection and were performed at 18 ± 4 °C. Cells were superfused with OR2 medium (NaCl 88 mM, KCl 2.5 mM, HEPES 5 mM, CaCl2•2H2O 1.8 mM, MgCl2•7H2O 1.0 mM, pH 7.4). To ensure that γ2 subunits were integrated into the heteropentamers, we injected fivefold more γ2 than the other subunit cRNAs. Diazepam is a positive allosteric modulator of GABAR only if γ2 subunits are present. Therefore, we used this method to confirm the presence of human and dog GABAA receptor containing the γ2 subunit.
(§3) Voltage-clamp measurements were performed as described by Rufener et al.. Oocytes were impaled with two electrodes filled with 3 M KCl, and their membrane potentials were maintained at − 80 mV throughout the experiment. […] Recordings were performed using an automated process equipped with standard two-electrode voltage-clamp configuration (HiClamp system; Multi Channel Systems MCS GmbH). Data were filtered at 10 Hz, captured at 100 Hz and analyzed using proprietary data acquisition and analysis software in MATLAB (Mathworks Inc., Natick, MA, USA). Additional analyses were performed using Excel (Microsoft, Redmond, WA, USA). […] Graphing the maximum inward currents against the log of agonist concentration produces typical concentration-activation and concentration-inhibition curves, which can be accurately described using individual Hill equations.

Hsa-GABAR = test: Voltage-clamp concentration-activation, summary over the six human receptors; settings: concentration-activation curves
Method: as §2
Voltage-clamp measurements were performed as described by Rufener et al.. Oocytes were impaled with two electrodes filled with 3 M KCl, and their membrane potentials were maintained at − 80 mV throughout the experiment. […] Recordings were performed using an automated process equipped with standard two-electrode voltage-clamp configuration (HiClamp system; Multi Channel Systems MCS GmbH). Data were filtered at 10 Hz, captured at 100 Hz and analyzed using proprietary data acquisition and analysis software in MATLAB (Mathworks Inc., Natick, MA, USA). […]

Clu-GABA α1β2γ2 = Clu-GABA α1β2γ2 (Canis lupus familiaris, UniProt A0A2H4NNI8+A0A8I3RPG5+E2RSQ0); test: Two-electrode voltage-clamp concentration-activation by the natural agonist, receptor expressed in Xenopus oocytes
Clu-GABA α1β2γ2, sequence (A0A2H4NNI8 28-456): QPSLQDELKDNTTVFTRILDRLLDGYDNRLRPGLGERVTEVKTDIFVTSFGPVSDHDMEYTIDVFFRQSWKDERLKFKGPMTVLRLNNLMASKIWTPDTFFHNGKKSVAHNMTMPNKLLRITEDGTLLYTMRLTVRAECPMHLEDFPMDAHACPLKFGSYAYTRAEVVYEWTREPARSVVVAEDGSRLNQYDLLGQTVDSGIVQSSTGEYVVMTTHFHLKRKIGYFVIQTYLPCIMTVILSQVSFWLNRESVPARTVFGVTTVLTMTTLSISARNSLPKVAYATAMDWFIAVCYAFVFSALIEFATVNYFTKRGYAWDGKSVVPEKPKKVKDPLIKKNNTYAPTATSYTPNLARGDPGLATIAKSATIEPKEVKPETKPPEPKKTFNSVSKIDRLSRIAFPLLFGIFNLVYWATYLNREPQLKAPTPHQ
Clu-GABA α1β2γ2, sequence (A0A8I3RPG5 25-473): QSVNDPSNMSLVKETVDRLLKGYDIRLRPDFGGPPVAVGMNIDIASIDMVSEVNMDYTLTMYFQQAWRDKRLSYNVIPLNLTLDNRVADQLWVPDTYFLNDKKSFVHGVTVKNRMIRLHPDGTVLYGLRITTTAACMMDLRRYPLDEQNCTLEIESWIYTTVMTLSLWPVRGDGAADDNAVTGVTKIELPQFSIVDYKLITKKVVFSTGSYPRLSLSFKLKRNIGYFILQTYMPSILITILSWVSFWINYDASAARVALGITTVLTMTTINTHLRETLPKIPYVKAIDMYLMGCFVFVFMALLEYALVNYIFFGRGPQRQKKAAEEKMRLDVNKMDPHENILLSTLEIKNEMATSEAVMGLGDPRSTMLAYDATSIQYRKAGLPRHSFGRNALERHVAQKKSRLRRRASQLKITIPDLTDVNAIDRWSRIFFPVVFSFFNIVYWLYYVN
Clu-GABA α1β2γ2, sequence (E2RSQ0 40-467): as the sequence (P18507 40-467 isoform P18507-1 limits assumed) above
Source text: as §1, §2, §3

Clu-GABA α5β2γ2 = Clu-GABA α5β2γ2 (Canis lupus familiaris, UniProt A0A8I3PC22+A0A8I3RPG5+E2RSQ0); test: as above
Clu-GABA α5β2γ2, sequence (A0A8I3PC22 32-462): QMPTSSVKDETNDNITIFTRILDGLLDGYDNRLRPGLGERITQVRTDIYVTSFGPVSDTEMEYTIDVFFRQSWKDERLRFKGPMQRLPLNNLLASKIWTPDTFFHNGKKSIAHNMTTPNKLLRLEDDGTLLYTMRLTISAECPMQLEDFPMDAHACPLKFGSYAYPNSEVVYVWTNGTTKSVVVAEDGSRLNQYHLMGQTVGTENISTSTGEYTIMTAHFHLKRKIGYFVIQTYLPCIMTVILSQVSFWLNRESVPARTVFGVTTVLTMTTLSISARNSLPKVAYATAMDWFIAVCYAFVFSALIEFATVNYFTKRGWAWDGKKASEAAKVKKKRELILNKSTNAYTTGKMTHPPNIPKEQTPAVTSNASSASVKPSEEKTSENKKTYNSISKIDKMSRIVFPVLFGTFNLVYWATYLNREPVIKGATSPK
Clu-GABA α5β2γ2, sequence (A0A8I3RPG5 25-473): as the sequence (A0A8I3RPG5 25-473) above
Clu-GABA α5β2γ2, sequence (E2RSQ0 40-467): as the sequence (P18507 40-467 isoform P18507-1 limits assumed) above
Source text: as §1, §2, §3

Clu-GABA α2β2γ2 = Clu-GABA α2β2γ2 (Canis lupus familiaris, UniProt A0A8I3RPG5+A0A8I3S1N5+E2RSQ0); test: as above
Clu-GABA α2β2γ2, sequence (A0A8I3S1N5 29-451): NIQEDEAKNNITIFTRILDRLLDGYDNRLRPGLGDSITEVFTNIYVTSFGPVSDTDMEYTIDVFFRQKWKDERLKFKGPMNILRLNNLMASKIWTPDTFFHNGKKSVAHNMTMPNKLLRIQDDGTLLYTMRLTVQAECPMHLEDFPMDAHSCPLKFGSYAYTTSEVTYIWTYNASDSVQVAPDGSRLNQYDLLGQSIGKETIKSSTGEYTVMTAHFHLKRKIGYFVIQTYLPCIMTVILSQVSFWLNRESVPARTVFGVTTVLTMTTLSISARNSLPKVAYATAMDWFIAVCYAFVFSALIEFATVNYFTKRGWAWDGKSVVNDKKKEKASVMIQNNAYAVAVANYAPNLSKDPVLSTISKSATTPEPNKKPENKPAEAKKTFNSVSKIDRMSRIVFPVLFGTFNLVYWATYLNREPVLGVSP
Clu-GABA α2β2γ2, sequence (A0A8I3RPG5 25-473): as the sequence (A0A8I3RPG5 25-473) above
Clu-GABA α2β2γ2, sequence (E2RSQ0 40-467): as the sequence (P18507 40-467 isoform P18507-1 limits assumed) above
Source text: as §1, §2, §3

Clu-GABA α3β2γ2 = Clu-GABA α3β2γ2 (Canis lupus familiaris, UniProt A0A8I3PRS3+A0A8I3RPG5+E2RSQ0); test: as above
Clu-GABA α3β2γ2, sequence (A0A8I3PRS3 29-259): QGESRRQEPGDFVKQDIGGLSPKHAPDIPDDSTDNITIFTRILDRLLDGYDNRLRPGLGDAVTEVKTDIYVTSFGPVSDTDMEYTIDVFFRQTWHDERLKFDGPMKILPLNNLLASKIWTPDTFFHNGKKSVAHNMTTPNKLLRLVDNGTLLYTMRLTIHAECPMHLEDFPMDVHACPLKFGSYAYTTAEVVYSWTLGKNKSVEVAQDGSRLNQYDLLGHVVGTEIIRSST
Clu-GABA α3β2γ2, sequence (A0A8I3RPG5 25-473): as the sequence (A0A8I3RPG5 25-473) above
Clu-GABA α3β2γ2, sequence (E2RSQ0 40-467): as the sequence (P18507 40-467 isoform P18507-1 limits assumed) above
Source text: as §1, §2, §3

Clu-GABA α2β3γ2 = Clu-GABA α2β3γ2 (Canis lupus familiaris, UniProt A0A8I3NUI4+A0A8I3S1N5+E2RSQ0); test: as above
Clu-GABA α2β3γ2, sequence (A0A8I3S1N5 29-451): as the sequence (A0A8I3S1N5 29-451) above
Clu-GABA α2β3γ2, sequence (A0A8I3NUI4 101-496): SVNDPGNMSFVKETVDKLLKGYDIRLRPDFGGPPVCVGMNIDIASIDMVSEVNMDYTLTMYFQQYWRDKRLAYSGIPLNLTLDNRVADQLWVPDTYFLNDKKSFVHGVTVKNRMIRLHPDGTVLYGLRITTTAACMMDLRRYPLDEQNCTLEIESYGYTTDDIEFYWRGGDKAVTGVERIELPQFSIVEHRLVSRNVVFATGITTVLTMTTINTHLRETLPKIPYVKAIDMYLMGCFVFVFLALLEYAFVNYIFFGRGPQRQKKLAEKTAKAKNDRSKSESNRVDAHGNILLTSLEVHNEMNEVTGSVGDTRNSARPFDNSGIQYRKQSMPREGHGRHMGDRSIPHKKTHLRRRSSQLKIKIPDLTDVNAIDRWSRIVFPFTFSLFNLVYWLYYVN
Clu-GABA α2β3γ2, sequence (E2RSQ0 40-467): as the sequence (P18507 40-467 isoform P18507-1 limits assumed) above
Source text: as §1, §2, §3

[1] = agonist, 10 s applications, Xenopus oocytes, −80 mV

NCCCC(=O)O [GABA, gamma-aminobutyric acid]
nH (Hill coefficient) (Hsa-GABA α5β2γ2): 1.1 | Hill coefficients over the six Hsa-GABAR (Hsa-GABAR): higher than 1 | EC50 (Clu-GABA α1β2γ2; [1]): 10 µM | nH (Hill coefficient) (Clu-GABA α1β2γ2; concentration-activation curve): 1.0 | EC50 (Clu-GABA α5β2γ2; [1]): 8.1 µM | nH (Hill coefficient) (Clu-GABA α5β2γ2; concentration-activation curve): 1.1 | EC50 (Clu-GABA α2β2γ2; [1]): 42 µM | nH (Hill coefficient) (Clu-GABA α2β2γ2; concentration-activation curve): 1.3 | EC50 (Clu-GABA α3β2γ2; [1]): 40.4 µM | nH (Hill coefficient) (Clu-GABA α3β2γ2; concentration-activation curve): 0.8 | EC50 (Clu-GABA α2β3γ2; [1]): 8.6 µM | nH (Hill coefficient) (Clu-GABA α2β3γ2; concentration-activation curve): 1.6
